The source of these data is ChEMBL document CHEMBL5465560, “Selectivity Literature for EUbOPEN Chemogenomic Library” (2024).

Molecules are shown by their SMILES. Some results are limits rather than exact numbers.

The target of assay [1] is Serine/threonine-protein kinase PAK 6 (Homo sapiens) (UniProt Q9NQU5). Description: Selectivity interaction (Kinase panel (Z-LYTE Assay)) EUB0001632a PAK6. The following applies: at 10 µM.
In assay [2] the target is Protein arginine N-methyltransferase 3 (Homo sapiens, UniProt O60678). Description: Selectivity interaction (Methyltransferase screen (Scintillation proximity assays)) EUB0000255b PRMT3. On the technique in general: In a scintillation proximity assay essentially only radioactivity close to the scintillant gives light.
Assay [3] deals with Tyrosine-protein kinase HCK (Homo sapiens) (UniProt P08631). Description: Selectivity interaction (KinomeScan (DiscoverX)) EUB0001619a HCK. The following applies: at 1 µM.
Assay [4] has as its target RAC-beta serine/threonine-protein kinase (Homo sapiens) (UniProt P31751). The assay can be described thus: Selectivity interaction (KinomeScan (DiscoverX)) EUB0001619a AKT2. The following applies: at 1 µM.
Assay [5] deals with Ephrin type-A receptor 2 (Homo sapiens) (UniProt P29317). The assay can be described thus: Selectivity interaction (KinomeScan (DiscoverX)) EUB0001619a EPHA2. The following applies: at 1 µM.
The target of assay [6] is Ribosomal protein S6 kinase alpha-1 (Homo sapiens, UniProt Q15418). Description: Selectivity interaction (KinomeScan (DiscoverX)) EUB0000695a RPS6KA1. The following applies: at 100 nM.
A further assay deals with Misshapen-like kinase 1 (Homo sapiens, UniProt Q8N4C8). Description: Selectivity interaction (KinomeScan (DiscoverX)) EUB0000695a MINK1. The following applies: at 100 nM.
For assay [7], the target named is PAS domain-containing serine/threonine-protein kinase (Homo sapiens) (UniProt Q96RG2). The assay can be described thus: Selectivity interaction (Kinase panel (Invitrogen)) EUB0000639a PASK. Conditions: at 200 nM.
For assay [8], the target named is Ribosomal protein S6 kinase beta-1 (Homo sapiens, UniProt P23443). Description: Selectivity interaction (ActivX KiNativ screen (kinase selectivity in THP-1 cell lysates)) EUB0000639a RPS6KB1. The format is subcellular. The following applies: lysate, at 1 µM.
For assay [9], the target named is Ribosomal protein S6 kinase alpha-3 (Homo sapiens, UniProt P51812). Description: Selectivity interaction (ActivX KiNativ screen (kinase selectivity in THP-1 cell lysates)) EUB0000639a RPS6KA3. Conditions: lysate, at 0.01 µM. The format is subcellular.
Assay [10] has as its target Proto-oncogene tyrosine-protein kinase ROS (Homo sapiens) (UniProt P08922). Description: Selectivity interaction (Kinase panel (Invitrogen)) EUB0000639a ROS1. Conditions: at 200 nM.
Assay [11] concerns the target T1, Mitogen-activated protein kinase 15 (Homo sapiens) (UniProt Q8TD08).
T1 sequence (whole entry): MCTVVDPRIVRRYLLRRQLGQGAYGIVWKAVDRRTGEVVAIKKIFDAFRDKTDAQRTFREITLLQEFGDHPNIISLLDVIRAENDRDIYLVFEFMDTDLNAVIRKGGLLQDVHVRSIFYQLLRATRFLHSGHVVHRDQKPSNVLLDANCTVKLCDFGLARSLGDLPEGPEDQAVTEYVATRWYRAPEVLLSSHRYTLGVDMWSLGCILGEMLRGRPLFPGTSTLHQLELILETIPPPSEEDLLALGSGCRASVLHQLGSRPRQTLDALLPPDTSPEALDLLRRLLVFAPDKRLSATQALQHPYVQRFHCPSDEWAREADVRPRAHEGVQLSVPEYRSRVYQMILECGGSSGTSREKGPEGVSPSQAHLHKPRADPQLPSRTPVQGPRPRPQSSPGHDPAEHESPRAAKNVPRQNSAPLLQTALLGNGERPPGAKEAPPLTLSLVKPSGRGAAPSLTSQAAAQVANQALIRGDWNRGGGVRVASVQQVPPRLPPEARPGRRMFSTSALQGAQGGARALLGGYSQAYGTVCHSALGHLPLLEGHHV
The assay can be described thus: Selectivity interaction (ProQinase) EUB0000171b MAPK15.

Assay [12] addresses Phosphatidylinositol 4-phosphate 5-kinase type-1 alpha (Homo sapiens) (UniProt Q99755). The assay can be described thus: Selectivity interaction (Ambit KINOMEscan and KiNATiv profiling in Jurkat cells) EUB0000090b PIP5K1A. Format: cell-based. Conditions: at 1 µM.
Assay [13] concerns the target Glycogen synthase kinase-3 beta (Homo sapiens, UniProt P49841).
Assay [14] concerns the target Myosin light chain kinase, smooth muscle (Homo sapiens, UniProt Q15746). The assay can be described thus: Selectivity interaction (KinomeScan (DiscoverX)) EUB0000655a MYLK. The following applies: at 10 µM.
In assay [15] the target is Glycogen synthase kinase-3 alpha (Homo sapiens, UniProt P49840). Description: Selectivity interaction (KinomeScan (DiscoverX)) EUB0000618a GSK3A. The following applies: at 10 µM.
Assay [16] deals with T2, Ephrin type-B receptor 6 (Homo sapiens) (UniProt O15197).
T2 sequence (whole entry): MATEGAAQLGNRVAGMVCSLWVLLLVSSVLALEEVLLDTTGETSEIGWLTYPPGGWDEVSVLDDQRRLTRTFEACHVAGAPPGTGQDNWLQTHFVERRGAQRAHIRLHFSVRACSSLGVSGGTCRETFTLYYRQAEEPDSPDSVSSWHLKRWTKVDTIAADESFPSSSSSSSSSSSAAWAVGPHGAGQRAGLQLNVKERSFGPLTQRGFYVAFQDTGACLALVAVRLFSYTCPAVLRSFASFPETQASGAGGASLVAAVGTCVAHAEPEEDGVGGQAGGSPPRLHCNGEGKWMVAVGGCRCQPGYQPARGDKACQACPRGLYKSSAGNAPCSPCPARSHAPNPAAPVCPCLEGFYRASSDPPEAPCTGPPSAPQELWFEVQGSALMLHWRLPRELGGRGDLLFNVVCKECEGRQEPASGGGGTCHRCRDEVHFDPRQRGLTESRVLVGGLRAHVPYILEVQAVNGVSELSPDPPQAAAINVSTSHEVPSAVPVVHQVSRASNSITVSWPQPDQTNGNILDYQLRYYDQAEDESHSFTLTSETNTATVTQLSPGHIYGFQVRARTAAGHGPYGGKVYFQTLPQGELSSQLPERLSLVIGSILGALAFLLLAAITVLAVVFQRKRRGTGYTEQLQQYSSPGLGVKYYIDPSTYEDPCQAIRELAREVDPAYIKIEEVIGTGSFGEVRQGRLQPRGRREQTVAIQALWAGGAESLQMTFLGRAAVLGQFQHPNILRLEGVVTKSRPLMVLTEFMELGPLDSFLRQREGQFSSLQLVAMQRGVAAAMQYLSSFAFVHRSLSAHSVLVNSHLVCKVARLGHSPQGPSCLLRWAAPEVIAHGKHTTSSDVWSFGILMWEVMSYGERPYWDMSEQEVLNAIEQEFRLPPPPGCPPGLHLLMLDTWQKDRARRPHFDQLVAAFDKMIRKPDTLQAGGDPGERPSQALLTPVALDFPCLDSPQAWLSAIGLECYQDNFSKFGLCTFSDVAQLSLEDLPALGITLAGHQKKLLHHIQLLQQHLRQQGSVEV
The assay can be described thus: Selectivity interaction (KinomeScan (DiscoverX)) EUB0000618a EPHB6. The following applies: at 10 µM.

Assay [17] addresses Beta-3 adrenergic receptor (Homo sapiens) (UniProt P13945). Description: Selectivity interaction (GPCR panel (PDSP screen)) EUB0001079a ADRB3. Conditions: at 10 µM.

Protein arginine N-methyltransferase 3, sequence (O60678 2-531 limits assumed): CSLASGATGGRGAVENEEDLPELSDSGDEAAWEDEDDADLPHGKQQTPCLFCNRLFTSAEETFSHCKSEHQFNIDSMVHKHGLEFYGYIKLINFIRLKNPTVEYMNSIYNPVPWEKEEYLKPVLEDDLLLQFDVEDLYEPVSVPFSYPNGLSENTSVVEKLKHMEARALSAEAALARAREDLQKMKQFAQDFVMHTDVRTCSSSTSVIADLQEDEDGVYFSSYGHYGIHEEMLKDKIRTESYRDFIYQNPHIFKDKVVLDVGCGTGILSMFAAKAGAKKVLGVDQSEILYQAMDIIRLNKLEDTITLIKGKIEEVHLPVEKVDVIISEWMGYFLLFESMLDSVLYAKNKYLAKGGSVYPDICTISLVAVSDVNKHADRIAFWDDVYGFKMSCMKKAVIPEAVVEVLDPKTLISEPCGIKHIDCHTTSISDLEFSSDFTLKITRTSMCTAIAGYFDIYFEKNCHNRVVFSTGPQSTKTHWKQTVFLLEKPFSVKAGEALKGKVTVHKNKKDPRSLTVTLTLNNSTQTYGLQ
Ribosomal protein S6 kinase alpha-3, sequence (P51812 whole entry): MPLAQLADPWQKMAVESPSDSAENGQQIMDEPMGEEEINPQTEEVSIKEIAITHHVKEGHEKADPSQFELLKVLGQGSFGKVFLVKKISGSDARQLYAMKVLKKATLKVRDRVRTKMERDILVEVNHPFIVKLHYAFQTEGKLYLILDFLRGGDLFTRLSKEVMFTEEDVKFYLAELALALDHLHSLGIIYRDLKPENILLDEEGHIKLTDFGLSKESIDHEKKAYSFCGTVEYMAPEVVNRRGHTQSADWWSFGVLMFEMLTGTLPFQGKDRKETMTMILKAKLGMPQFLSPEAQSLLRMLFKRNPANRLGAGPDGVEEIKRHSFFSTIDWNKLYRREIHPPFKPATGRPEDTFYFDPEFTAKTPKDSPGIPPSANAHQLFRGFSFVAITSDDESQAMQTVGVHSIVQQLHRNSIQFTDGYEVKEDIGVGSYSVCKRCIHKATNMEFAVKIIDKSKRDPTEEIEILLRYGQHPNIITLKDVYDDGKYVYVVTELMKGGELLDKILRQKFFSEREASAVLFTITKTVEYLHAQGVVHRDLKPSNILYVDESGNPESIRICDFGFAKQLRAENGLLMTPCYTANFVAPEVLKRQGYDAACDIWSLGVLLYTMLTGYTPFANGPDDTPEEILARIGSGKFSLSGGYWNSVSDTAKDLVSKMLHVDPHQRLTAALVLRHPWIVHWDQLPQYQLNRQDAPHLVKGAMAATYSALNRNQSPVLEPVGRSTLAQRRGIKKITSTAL
Ephrin type-A receptor 2 (Homo sapiens), sequence (P29317 whole entry): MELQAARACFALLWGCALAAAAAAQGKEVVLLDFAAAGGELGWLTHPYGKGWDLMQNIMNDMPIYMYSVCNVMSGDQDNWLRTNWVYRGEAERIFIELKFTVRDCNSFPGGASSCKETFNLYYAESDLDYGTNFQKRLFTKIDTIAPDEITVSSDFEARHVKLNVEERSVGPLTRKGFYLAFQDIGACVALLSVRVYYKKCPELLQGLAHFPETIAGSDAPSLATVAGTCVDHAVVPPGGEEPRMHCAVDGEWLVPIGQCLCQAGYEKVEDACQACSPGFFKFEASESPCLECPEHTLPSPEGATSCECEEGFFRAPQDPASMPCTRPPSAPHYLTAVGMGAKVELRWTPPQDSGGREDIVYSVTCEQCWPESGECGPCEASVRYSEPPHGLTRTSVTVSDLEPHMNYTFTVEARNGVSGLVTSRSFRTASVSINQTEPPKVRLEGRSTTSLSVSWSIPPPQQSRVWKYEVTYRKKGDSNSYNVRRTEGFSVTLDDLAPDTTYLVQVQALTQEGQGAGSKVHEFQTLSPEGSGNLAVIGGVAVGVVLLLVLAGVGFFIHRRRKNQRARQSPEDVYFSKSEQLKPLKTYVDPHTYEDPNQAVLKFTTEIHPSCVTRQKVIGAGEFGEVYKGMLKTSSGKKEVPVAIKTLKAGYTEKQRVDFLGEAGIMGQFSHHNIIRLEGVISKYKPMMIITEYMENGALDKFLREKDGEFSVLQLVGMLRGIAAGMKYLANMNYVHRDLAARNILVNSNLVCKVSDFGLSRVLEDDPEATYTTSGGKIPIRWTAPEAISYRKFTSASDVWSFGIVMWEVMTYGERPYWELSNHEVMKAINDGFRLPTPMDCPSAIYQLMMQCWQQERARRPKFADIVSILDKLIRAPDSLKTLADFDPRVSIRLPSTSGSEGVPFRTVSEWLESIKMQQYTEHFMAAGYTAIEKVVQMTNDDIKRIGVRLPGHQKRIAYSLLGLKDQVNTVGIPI
Phosphatidylinositol 4-phosphate 5-kinase type-1 alpha (Homo sapiens), sequence (Q99755 whole entry): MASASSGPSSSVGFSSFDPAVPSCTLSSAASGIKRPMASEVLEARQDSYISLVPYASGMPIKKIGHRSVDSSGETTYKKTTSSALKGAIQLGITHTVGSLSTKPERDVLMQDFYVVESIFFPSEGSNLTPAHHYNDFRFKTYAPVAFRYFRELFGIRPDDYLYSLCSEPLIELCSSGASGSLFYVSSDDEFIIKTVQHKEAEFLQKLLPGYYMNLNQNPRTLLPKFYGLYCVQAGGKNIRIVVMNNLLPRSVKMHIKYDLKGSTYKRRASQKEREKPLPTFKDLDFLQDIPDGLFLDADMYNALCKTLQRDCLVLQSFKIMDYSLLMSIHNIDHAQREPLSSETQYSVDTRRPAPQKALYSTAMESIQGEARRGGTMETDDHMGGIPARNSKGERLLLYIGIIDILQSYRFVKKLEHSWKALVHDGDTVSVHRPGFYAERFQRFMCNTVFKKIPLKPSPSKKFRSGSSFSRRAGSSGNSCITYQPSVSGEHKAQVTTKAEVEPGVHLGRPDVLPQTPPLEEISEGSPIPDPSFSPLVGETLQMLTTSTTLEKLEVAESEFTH
Beta-3 adrenergic receptor (Homo sapiens), sequence (P13945 whole entry, looked up): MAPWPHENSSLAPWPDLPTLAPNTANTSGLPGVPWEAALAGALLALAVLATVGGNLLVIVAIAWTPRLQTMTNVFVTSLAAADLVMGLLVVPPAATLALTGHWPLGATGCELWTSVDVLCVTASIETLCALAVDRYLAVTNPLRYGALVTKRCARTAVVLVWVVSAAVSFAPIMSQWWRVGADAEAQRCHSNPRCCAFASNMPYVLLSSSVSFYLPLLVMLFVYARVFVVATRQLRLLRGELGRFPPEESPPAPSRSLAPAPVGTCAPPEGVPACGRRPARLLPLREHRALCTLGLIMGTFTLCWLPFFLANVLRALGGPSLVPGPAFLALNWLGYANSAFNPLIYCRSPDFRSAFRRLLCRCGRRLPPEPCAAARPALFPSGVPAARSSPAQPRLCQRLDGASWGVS
Serine/threonine-protein kinase PAK 6 (Homo sapiens), sequence (Q9NQU5 whole entry, looked up): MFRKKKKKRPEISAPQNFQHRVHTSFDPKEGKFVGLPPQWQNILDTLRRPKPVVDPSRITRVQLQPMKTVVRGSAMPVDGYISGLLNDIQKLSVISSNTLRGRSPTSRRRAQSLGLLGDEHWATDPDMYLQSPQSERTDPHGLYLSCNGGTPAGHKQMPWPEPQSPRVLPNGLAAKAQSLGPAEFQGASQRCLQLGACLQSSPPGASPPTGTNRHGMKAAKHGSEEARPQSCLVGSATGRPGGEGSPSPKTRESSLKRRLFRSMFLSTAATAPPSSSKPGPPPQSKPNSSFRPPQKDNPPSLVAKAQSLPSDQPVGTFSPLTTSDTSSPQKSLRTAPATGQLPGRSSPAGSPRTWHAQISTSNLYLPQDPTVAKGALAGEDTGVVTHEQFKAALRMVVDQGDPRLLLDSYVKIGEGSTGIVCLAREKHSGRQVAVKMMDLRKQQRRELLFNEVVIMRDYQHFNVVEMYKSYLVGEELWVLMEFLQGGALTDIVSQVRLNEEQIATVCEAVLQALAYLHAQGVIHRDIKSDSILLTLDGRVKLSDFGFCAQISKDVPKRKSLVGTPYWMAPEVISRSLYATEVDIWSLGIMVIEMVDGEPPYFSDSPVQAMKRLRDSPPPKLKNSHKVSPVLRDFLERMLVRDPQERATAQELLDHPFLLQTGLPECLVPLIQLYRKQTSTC
Ribosomal protein S6 kinase beta-1, sequence (P23443 whole entry, looked up): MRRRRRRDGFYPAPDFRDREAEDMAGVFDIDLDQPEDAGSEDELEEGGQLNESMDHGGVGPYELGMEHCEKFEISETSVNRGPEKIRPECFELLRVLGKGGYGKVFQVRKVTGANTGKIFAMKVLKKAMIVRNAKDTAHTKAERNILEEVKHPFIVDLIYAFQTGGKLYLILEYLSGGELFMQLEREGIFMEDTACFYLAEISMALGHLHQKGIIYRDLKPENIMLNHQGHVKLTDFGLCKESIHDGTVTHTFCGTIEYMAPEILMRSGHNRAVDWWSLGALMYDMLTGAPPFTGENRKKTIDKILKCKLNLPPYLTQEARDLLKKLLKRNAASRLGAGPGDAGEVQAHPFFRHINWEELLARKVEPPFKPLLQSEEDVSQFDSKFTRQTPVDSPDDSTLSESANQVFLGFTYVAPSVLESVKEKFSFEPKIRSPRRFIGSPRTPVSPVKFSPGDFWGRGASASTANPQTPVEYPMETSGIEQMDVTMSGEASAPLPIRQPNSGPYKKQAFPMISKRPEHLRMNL
Glycogen synthase kinase-3 beta, sequence (P49841 whole entry): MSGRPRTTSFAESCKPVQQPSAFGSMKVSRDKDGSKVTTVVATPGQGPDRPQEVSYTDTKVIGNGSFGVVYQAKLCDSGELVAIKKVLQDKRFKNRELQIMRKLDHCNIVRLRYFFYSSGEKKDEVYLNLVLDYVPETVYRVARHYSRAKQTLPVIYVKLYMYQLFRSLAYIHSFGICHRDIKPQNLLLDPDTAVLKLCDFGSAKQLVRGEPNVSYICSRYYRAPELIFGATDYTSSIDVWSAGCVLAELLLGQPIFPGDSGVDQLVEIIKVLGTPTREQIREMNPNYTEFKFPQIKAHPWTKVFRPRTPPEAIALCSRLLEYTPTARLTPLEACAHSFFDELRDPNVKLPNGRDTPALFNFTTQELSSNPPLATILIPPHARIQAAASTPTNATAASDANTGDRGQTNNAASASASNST

In the case of `Cn1cc(-n2cnc3c(NCc4nc5cc(Cl)c(Cl)cc5[nH]4)nc(N4CCOCC4)nc32)cn1`, the % of control in [1] is -4.06%.
Consider `COCCN1CCC(c2cc(CN(C)C(=O)c3cccc(Oc4ccccc4)c3)ccn2)CC1`, for which the % activity in assay [2] (at 1 µM) is above 95%; in assay [2] (at 10 µM) it was above 90%.
Turning to `N#Cc1cccc(-c2c[nH]c3ncnc(N4CCOCC4)c23)c1`, the % of control in assay [3], in assay [4] and in assay [5] was 100% throughout.
Consider `Cc1cc(F)c(C(=O)Nc2cccc(-c3nncn3C(C)C)n2)cc1-n1cnc(C2CC2)c1`, for which the % of control in assay [6] turned out to be 100%; on Misshapen-like kinase 1 it was 83%.
For the compound `CC[C@@H]1[C@H](F)C(=O)N[C@@H]1COc1nccc2cc(C(N)=O)c(OC)cc12` [ZIMLOVISERTIB], the % of inhibition in assay [7] was 7.59%; in assay [8] it was -5.5%; in [9], 10.7%; in assay [10], 18.1%.
As for `C=CC(=O)Nc1cccc(C(=O)Nc2ccc(Nc3cc(-c4[nH]c(SC)nc4C)ccn3)cc2)c1`, the % of control turned out to be 66% in assay [11] (at 1 µM) and 31% in assay [11] (at 5 µM).
Take `CN(C)C/C=C/C(=O)Nc1ccc(C(=O)N2CCCC(Nc3ncc(Cl)c(-c4c[nH]c5ccccc45)n3)C2)cc1` (stereo not given): the % of control in assay [12] was 78%.
For orientation: IC50 means the midpoint of a concentration-inhibition curve. High values mean lower potency, low ones higher potency. In turn, `CCc1cccc(CC)c1NC(=O)c1nn(C)c2c1CCc1cnc(Nc3ccc(C(=O)NC4CCN(C)CC4)cc3OC(F)(F)F)nc1-2` came in with an IC50 in [13] above 10 µM.
In the case of `CN(C)CCOc1ccc(-c2nc(-c3ccncc3)c(-c3ccc4c(c3)CC/C4=N\O)[nH]2)cc1`, the % of control in [14] amounted to 98%.
On to `O[C@H]1CC[C@H](Nc2ncc3nc(Nc4c(F)cc(F)cc4F)n([C@H]4CCOC4)c3n2)CC1`, for which the % of control in [15] stood at 90%; in [16], 7.8%.
With `Nc1cnc(N2CCc3cc(S(=O)(=O)Nc4c(F)cc(Cl)cc4F)cc(N4CCCC4=O)c32)nc1` [TP-020n], the % of inhibition in assay [17] was -2.69%.
